Tests used:
Assay in all cases: biochemical
Parameters in all cases: Invitrogen SelectScreen kinase panel, percent inhibition at 1 uM, ATP at Km
Conditions in all cases: read-out: Invitrogen KSS %Inh at 1 µM
MET (cMet) = MET (cMet) (Homo sapiens, UniProt P08581)
Method in brief: (§1)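 Commercial kinase panel screens run with ATP at the Km for each kinase. Compounds tested at 1 µM final concentration; values are % inhibition of phosphorylation relative to control.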

RET = RET (Homo sapiens, UniProt P07949)
Method in brief: as §1

BLK = BLK (Homo sapiens, UniProt P51451)
Sequence of BLK (P51451 whole entry): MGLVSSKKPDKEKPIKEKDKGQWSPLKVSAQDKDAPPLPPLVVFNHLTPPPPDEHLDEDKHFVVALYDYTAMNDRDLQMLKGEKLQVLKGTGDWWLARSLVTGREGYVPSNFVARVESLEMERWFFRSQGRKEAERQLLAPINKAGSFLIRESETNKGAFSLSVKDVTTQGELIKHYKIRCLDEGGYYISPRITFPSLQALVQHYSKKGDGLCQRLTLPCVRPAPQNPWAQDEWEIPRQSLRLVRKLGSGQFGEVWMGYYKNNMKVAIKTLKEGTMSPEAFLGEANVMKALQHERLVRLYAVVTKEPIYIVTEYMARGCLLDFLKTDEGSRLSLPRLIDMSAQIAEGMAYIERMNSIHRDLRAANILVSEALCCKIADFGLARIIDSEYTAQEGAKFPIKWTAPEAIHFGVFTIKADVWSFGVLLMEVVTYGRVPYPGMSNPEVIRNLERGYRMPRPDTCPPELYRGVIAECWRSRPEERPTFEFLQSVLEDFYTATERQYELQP
Method in brief: as §1

MAPK1/ERK2 = MAPK1/ERK2 (Homo sapiens, UniProt P28482)
Sequence of MAPK1/ERK2 (P28482 whole entry): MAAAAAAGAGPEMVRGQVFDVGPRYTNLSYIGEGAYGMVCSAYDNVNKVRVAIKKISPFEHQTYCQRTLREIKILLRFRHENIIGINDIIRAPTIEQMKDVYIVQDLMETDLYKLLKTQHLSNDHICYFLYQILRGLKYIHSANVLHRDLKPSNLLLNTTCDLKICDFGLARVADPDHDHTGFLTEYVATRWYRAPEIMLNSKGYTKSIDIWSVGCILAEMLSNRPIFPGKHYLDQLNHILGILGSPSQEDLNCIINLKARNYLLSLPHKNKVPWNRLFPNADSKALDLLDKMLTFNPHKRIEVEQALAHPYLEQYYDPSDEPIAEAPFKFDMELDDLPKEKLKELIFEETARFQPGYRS
Method in brief: as §1

PLK3 = PLK3 (Homo sapiens, UniProt Q9H4B4)
Method in brief: as §1

ABL1 = ABL1 (Homo sapiens, UniProt P00519)
Method in brief: as §1

PTK2 (FAK) = PTK2 (FAK) (Homo sapiens, UniProt Q05397)
Method in brief: as §1

MAP2K6 (MKK6) = MAP2K6 (MKK6) (Homo sapiens, UniProt P52564)
Sequence of MAP2K6 (MKK6) (P52564 whole entry): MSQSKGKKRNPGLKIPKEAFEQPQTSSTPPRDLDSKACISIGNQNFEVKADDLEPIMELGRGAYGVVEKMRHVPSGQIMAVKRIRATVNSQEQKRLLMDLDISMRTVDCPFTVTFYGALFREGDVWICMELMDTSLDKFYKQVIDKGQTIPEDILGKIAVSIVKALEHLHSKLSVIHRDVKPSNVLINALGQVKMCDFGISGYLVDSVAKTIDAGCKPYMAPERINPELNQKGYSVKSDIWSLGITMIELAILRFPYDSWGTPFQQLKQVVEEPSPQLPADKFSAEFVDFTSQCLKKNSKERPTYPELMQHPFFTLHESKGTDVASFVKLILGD
Method in brief: as §1

NEK7 = NEK7 (Homo sapiens, UniProt Q8TDX7)
Sequence of NEK7 (Q8TDX7 whole entry): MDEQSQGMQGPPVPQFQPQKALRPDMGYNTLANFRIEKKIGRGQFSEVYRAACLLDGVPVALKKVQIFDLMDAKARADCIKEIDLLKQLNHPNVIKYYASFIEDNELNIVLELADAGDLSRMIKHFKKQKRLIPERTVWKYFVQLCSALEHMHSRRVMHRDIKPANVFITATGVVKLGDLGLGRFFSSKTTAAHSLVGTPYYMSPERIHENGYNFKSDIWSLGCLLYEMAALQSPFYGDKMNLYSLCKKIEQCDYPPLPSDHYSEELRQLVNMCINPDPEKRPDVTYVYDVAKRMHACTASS
Method in brief: as §1

EGFR (ErbB1) L861Q = EGFR (ErbB1) L861Q (Homo sapiens, UniProt P00533, L861Q)
Method in brief: as §1

FLT3 = FLT3 (Homo sapiens, UniProt P36888)
Method in brief: as §1

STK3 (MST2) = STK3 (MST2) (Homo sapiens, UniProt Q13188)
Sequence of STK3 (MST2) (Q13188 whole entry): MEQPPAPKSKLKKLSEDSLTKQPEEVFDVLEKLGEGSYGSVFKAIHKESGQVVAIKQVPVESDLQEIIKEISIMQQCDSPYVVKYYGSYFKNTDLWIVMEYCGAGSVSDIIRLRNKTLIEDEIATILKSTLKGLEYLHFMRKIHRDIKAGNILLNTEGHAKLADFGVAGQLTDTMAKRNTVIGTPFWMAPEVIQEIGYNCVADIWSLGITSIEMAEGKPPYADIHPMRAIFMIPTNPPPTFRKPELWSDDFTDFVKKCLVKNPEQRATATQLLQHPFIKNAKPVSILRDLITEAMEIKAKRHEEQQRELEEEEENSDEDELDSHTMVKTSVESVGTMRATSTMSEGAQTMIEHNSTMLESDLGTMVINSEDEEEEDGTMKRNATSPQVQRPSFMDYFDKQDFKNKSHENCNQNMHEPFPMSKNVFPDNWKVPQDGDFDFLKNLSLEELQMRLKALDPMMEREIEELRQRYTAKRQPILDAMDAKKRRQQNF
Method in brief: as §1

PAK2 (PAK65) = PAK2 (PAK65) (Homo sapiens, UniProt Q13177)
Method in brief: as §1

CHEK2 (CHK2) = CHEK2 (CHK2) (Homo sapiens, UniProt O96017)
Method in brief: as §1

IGF1R = IGF1R (Homo sapiens, UniProt P08069)
Method in brief: as §1

FYN = FYN (Homo sapiens, UniProt P06241)
Method in brief: as §1

MYLK2 (skMLCK) = MYLK2 (skMLCK) (Homo sapiens, UniProt Q9H1R3)
Method in brief: as §1

RPS6KA5 (MSK1) = RPS6KA5 (MSK1) (Homo sapiens, UniProt O75582)
Sequence of RPS6KA5 (MSK1) (O75582 whole entry): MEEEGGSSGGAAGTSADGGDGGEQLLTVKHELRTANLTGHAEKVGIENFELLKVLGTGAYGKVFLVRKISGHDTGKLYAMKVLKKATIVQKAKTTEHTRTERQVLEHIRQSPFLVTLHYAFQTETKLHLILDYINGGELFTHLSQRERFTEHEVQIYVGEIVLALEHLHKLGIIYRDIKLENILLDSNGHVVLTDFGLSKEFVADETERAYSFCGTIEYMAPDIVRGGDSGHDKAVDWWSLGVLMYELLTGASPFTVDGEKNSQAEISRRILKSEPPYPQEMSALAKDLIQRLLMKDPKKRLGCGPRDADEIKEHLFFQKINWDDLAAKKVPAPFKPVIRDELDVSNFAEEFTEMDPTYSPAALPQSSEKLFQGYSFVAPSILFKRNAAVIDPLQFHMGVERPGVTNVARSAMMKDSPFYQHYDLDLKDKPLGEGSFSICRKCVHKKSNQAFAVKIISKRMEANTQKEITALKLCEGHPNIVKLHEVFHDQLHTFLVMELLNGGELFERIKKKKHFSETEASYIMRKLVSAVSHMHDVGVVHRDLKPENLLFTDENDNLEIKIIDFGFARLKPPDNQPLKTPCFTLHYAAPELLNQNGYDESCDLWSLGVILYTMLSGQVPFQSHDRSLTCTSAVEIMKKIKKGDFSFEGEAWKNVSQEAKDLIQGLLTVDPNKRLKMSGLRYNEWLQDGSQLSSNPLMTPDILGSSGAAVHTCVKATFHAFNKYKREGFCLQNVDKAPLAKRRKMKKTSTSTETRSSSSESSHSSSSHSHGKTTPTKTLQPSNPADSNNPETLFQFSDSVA
Method in brief: as §1

EEF2K = EEF2K (Homo sapiens, UniProt O00418)
Sequence of EEF2K (O00418 whole entry): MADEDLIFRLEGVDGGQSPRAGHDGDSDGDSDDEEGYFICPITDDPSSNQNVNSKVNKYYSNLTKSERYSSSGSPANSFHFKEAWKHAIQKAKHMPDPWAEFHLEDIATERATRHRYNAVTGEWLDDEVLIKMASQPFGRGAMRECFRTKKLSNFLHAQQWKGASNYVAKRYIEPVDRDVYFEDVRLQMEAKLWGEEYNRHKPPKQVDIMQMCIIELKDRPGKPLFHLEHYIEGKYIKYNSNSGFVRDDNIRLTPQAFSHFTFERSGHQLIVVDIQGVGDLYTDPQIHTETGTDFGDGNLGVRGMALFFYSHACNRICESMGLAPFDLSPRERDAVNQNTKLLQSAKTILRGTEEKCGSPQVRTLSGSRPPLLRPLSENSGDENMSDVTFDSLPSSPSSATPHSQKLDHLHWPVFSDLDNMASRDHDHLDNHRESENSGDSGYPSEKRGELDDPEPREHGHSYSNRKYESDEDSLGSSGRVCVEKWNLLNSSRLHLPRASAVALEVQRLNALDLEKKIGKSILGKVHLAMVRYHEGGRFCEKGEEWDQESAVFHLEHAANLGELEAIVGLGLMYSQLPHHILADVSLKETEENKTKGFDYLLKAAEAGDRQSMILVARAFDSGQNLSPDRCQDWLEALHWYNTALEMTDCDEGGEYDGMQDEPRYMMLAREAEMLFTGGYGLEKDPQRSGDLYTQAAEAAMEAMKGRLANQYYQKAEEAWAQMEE
Method in brief: as §1

RPS6KA3 (RSK2) = RPS6KA3 (RSK2) (Homo sapiens, UniProt P51812)
Method in brief: as §1

PRKCD (PKC delta) = PRKCD (PKC delta) (Homo sapiens, UniProt Q05655)
Method in brief: as §1

AXL = AXL (Homo sapiens, UniProt P30530)
Method in brief: as §1

Sequence of MET (cMet) (P08581 whole entry): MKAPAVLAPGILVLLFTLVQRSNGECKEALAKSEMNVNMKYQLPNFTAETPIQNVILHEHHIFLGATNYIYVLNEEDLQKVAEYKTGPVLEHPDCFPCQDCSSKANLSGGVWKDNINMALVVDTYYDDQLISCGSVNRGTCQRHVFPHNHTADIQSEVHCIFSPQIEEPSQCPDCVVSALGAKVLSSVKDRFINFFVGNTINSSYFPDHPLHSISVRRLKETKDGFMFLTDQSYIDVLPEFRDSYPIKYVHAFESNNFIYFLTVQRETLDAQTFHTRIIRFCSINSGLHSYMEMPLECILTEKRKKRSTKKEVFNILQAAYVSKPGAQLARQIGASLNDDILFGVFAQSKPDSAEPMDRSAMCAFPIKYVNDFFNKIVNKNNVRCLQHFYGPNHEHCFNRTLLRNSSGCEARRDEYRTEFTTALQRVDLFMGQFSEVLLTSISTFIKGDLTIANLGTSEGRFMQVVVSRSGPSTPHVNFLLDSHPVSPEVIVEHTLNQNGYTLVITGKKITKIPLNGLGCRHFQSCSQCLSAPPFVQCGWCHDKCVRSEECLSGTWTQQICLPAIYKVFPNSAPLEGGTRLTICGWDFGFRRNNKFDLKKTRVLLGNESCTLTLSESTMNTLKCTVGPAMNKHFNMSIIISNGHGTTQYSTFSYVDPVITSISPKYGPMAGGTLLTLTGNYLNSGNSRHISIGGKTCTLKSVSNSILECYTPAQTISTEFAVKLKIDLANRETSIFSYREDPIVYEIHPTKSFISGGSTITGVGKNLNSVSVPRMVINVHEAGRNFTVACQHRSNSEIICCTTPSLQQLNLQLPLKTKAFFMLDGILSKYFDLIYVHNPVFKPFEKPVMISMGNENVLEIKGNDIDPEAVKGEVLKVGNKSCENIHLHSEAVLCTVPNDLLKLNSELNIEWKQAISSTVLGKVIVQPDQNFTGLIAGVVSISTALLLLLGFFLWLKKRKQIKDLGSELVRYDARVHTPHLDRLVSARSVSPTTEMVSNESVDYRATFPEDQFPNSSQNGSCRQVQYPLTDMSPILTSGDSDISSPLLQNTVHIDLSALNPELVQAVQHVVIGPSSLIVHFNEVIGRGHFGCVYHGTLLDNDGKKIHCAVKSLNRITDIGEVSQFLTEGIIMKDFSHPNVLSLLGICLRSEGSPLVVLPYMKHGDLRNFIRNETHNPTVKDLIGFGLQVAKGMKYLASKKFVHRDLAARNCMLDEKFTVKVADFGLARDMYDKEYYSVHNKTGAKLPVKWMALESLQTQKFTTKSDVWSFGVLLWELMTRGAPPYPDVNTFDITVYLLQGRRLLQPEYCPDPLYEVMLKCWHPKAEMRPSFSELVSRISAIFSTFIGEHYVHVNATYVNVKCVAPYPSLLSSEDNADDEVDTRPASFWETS

inhibition at 1 µM (MET (cMet)): 12% | inhibition at 1 µM (RET): 12% | inhibition at 1 µM (BLK): 7% | inhibition at 1 µM (MAPK1/ERK2): 14% | inhibition at 1 µM (PLK3): 4% | inhibition at 1 µM (ABL1): 6% | inhibition at 1 µM (PTK2 (FAK)): 12% | inhibition at 1 µM (MAP2K6 (MKK6)): 12% | inhibition at 1 µM (NEK7): 23% | inhibition at 1 µM (EGFR (ErbB1) L861Q): 5% | inhibition at 1 µM (FLT3): 61% | inhibition at 1 µM (STK3 (MST2)): 9% | inhibition at 1 µM (PAK2 (PAK65)): 3% | inhibition at 1 µM (CHEK2 (CHK2)): 7% | inhibition at 1 µM (IGF1R): 9% | inhibition at 1 µM (FYN): -4% | inhibition at 1 µM (MYLK2 (skMLCK)): 20% | inhibition at 1 µM (RPS6KA5 (MSK1)): 3% | inhibition at 1 µM (EEF2K): 14% | inhibition at 1 µM (RPS6KA3 (RSK2)): -9% | inhibition at 1 µM (PRKCD (PKC delta)): 6% | inhibition at 1 µM (AXL): -1%
SMILES: N#CCCNc1nccc(-c2cn(CC(F)F)nc2-c2cnc3[nH]ccc3c2)n1 [RAFi, PF-04880594]

From article PMC3382171 (PLoS ONE, 2012)
